Values quoted from earlier work as cited in patent US20060153925A1, “Novel solid pharmaceutical composition comprising amisulpride” (Sanofi-Aventis, priority 2003, published 2006).

Conditions: administered orally; attributed to partial gastrointestinal absorption

bioavailability: about 48%
Structure (SMILES): CCN1CCCC1CNC(=O)c1cc(S(=O)(=O)CC)c(N)cc1OC (racemic) [amisulpride, 4-amino-N-[(1-ethyl-2-pyrrolidin-yl)methyl]-5-(ethylsulfonyl)-2-methoxybenzamide]
